Here are results for 3 compounds from patent US20070203211A1, “Drug for preventing or treating angiogenic eye diseases” (SANKYO COMPANY, LIMITED, priority 2003, published 2007).

SMILES strings stand for the structures.

One experiment has as its system C57BL/6 mice. The experiment in a line: oxygen-induced retinopathy in mice, retinopathy score by ADPase staining of retinal flat specimens. Type of experiment: in vivo. The settings on record: score as percentage of solvent control (100%), n = 9 to 16. As for the experimental part:
Seven-day-old C57BL/6 mice were housed for five days with their mother in roughly 75% oxygen. Subsequently, the animals were housed for another five days after returning to ordinary air. While being housed in air, the animals were administered a test compound once a day. Following completion of administration, the animals were sacrificed by dislocation of the cervical vertebra followed by excision of the eyeball. The eyeballs were fixed in neutral formalin. After preparing flat specimens of the retina, vascular endothelium was stained by ADPase staining (Lutty, et al., Arch. Ophthalmol. 1992; 100: 267). After staining, retinopathy was scored in a blind study, and retinopathy was assessed for each of 12 retinal sections obtained by dividing the entire circumference of the retina into 12 equal sections centering about the papilla of the optic nerve. Assessments were made by scoring either the presence of retinopathy (score: 1) or the absence of retinopathy (score: 0), and determining the retinopathy score for each specimen based on the total score of the 12 sections. The score of each test compound was calculated as a percentage based on assigning a value of 100% for the score following administration of solvent. The test compounds consisted of (5-methyl-2-oxo-1,3-dioxolen-4-yl)methyl 4-(1-hydroxy-1-methylethyl)-2-propyl-1-[2′-(1H-tetrazol-5-yl)biphenyl-4-ylmethyl]imidazole-5-carboxylate (hereinafter, indicated as “Compound A”) for the medicament of the present invention, Candesartan cilexetil and Losartan.

In experiment [1] the test system is New Zealand White rabbits. Nature of the experiment: VEGF pellet-induced corneal neovascularization in rabbits. Type of experiment: in vivo. The settings on record: dosage 10 mg/kg once a day for one week; AA = neovascularization density score (0 to 5) x length (mm); solvent control 0.72 ± 0.15; n = 3. The text has this:
Male New Zealand White rabbits were used in this example. The animals were anesthetized by administering suitable amounts of animal […] (registered trade mark) 50 and Celactal (registered trade mark). Moreover, the eyes were topically anesthetized by dropping 0.4% Benoxil (registered trade mark) opthalmic solution. The procedure was basically preformed in accordance with the method of Ziche, et al. (J. Clin. Invest. 1997 99: 2625-2634), and consisted of creating a pocket in the center of the cornea with a razor, and inserting a hydron pellet containing VEGF produced in advance into the pocket. A solution of the test compound was administered once a day for one week. Corneal neovascularization was photographed on the day after final administration of the test compound. Neovascularization was evaluated using the density and length of newly formed vessels as an index. Namely, neovascularization density was scored from 0 to 5 by referring to standard photographs corresponding to each score. The length of neovascularization was calculated by measuring the length (mm) of vessels uniformly extending from the corneal limbus towards the pellet based on a scale bar on the photograph. The value obtained by multiplying the neovascularization density score by the neovascularization length (mm) was used to indicate angiogenic activity (AA).

The mark [2] stands for this setting: dosage 1 mg/kg once a day for five days.
The mark [3] stands for this setting: dosage 3 mg/kg once a day for five days.
Setting [4] is: dosage 10 mg/kg once a day for five days.
The mark [5] stands for this setting: dosage 30 mg/kg once a day for five days.

On to `CCOc1nc2cccc(C(=O)OC(C)OC(=O)OC3CCCCC3)c2n1Cc1ccc(-c2ccccc2-c2nnn[nH]2)cc1` (stereo not shown) [Candesartan cilexetil], for which the “Retinopathy (%)” value with C57BL/6 mice (setting [2]) was determined as 84 ± 14%; in the experiment with C57BL/6 mice (setting [3]) it was 70 ± 12%; with C57BL/6 mice (setting [4]), 56 ± 11%; in the experiment on C57BL/6 mice (setting [5]) it was 58 ± 11%.
Consider `CCCc1nc(C(C)(C)O)c(C(=O)OCc2oc(=O)oc2C)n1Cc1ccc(-c2ccccc2-c2nnn[nH]2)cc1` [Compound A, (5-methyl-2-oxo-1,3-dioxolen-4-yl)methyl 4-(1-hydroxy-1-methylethyl)-2-propyl-1-[2′-(1H-tetrazol-5-yl)biphenyl-4-ylmethyl]imidazole-5-carboxylate], for which the “Angiogenic Activity (AA)” value in experiment [1] came out at 0.14 ± 0.11. Moreover, the “Retinopathy (%)” value stood at 57 ± 13% in the experiment on C57BL/6 mice (setting [2]), 40 ± 9% in the experiment with C57BL/6 mice (setting [3]), 31 ± 7% in the experiment on C57BL/6 mice (setting [4]) and 32 ± 11% in the experiment on C57BL/6 mice (setting [5]).
Take `CCCCc1nc(Cl)c(CO)n1Cc1ccc(-c2ccccc2-c2nn[nH]n2)cc1` [Losartan]: the “Retinopathy (%)” value with C57BL/6 mice (setting [3]) came to 90 ± 11%; with C57BL/6 mice (setting [4]), 54 ± 10%; with C57BL/6 mice (setting [5]), 42 ± 9%; in the experiment on C57BL/6 mice (dosage 100 mg/kg once a day for five days) it was 40 ± 11%.
